Among the data in a compilation of properties of binary mixtures (doi:10.1016/j.molliq.2022.121176) are electrical conductivity and viscosity values, retold here.

As usually defined, the viscosity is the resistance of a fluid to flow.

This series can be described thus: xn = mol fraction of the nth substance listed. The conditions noted are these: 298 K, 101.3 kPa.

In the case of `CCCC[n+]1ccn(C)c1.[I-]` + II, the electrical conductivity (x1 = 1) is 0.035 S/m.
On to `II` + CCCCCCCCCCCC[n+]1ccn(C)c1.[I-], for which the electrical conductivity (x2 = 0.25) is 1.39 S/m.
As for `II` + CCCC[n+]1ccn(C)c1.[I-], the electrical conductivity is, setting by setting: (x2 = 0.2) 5.13 S/m; (x2 = 0.25) 4.31 S/m; (x2 = 0.5) 0.735 S/m.
Regarding `II` + CCCCCC[n+]1ccn(C)c1.[I-], the electrical conductivity reads like this: (x2 = 0.2) 3.89 S/m; (x2 = 0.25) 2.93 S/m; (x2 = 0.333) 1.96 S/m; (x2 = 0.5) 0.429 S/m.
With `C=CCn1cc[n+](C)c1.[I-]` + II, the electrical conductivity was 4.07 S/m (x1 = 0.2) and 3.82 S/m (x1 = 0.333).
Regarding `CCCCCC[n+]1ccn(C)c1.[I-]` + II, where the note is “x1 = 1”, the electrical conductivity came out at 0.0186 S/m.
As to `CC[n+]1ccn(C)c1.[I-]` + II, the electrical conductivity is, setting by setting: (x1 = 0.2) 7.17 S/m; (x1 = 0.25) 6.5 S/m; (x1 = 0.333) 5.08 S/m. For the same compound, the viscosity (x1 = 0.25) was 18.8 mPa·s.
